What was measured:
[1] = intramuscular injection; cited from earlier work
[2] = Plasma concentration after oral administration; type: in vivo, mice; conditions: 100 mg/kg in 0.5% CMC suspension p.o.; 0.5 and 4 h; among 14b, 14g, 24a, 24c, 28a, 28c

| Structure (SMILES) | lag to reach steady-state concentrations [1] | plasma levels [2] |
| --- | --- | --- |
| C[C@]12CC[C@@H]3c4ccc(O)cc4C[C@@H](CCCCCCCCC[S+]([O-])CCCC(F)(F)C(F)(F)F)[C@H]3[C@@H]1CC[C@@H]2O (stereo partly shown) [Compound 1, fulvestrant] | 3–6 month | – |
| Cc1cc(F)cc(C)c1C(=O)c1sc2cc(O)ccc2c1Oc1ccc(/C=C/C(=O)O)cc1 [Compound 24c] | – | highest plasma levels |
| Cc1ccc(C(=O)c2sc3cc(O)ccc3c2Oc2ccc(/C=C/C(=O)O)cc2)c(C)c1 [Compound 28a, (E)-3-(4-((2-(2,4-dimethylbenzoyl)-6-hydroxybenzo[b]thiophen-3-yl)oxy)phenyl)acrylic acid] | – | highest plasma levels |
| Cc1cc(Cl)cc(C)c1C(=O)c1sc2cc(O)ccc2c1Oc1ccc(/C=C/C(=O)O)cc1 [Compound 28c, (E)-3-(4-((2-(4-chloro-2,6-dimethylbenzoyl)-6-hydroxybenzo[b]thiophen-3-yl)oxy)phenyl)acrylic acid] | – | highest plasma levels |

Source: PMC5786431 (Journal of medicinal chemistry, 2017)
